Earlier results on one compound are cited in patent publication US20090012066A1, “Method of Use of Deacetylase Inhibitors” (Novartis AG, priority 2005, published 2009).

The test system of series [1] is cardiac hypertrophy in transgenic mice that over-express Hop. As to conditions: transgenic mice over-expressing Hop; Kook et al. 2003.
Series [2] deals with hypertrophy induced by infusion of isoproterenol.

`CC(/C=C/C(=O)NO)=C\[C@@H](C)C(=O)c1ccc(N(C)C)cc1` [trichostatin A]: the “effect on cardiac hypertrophy” value in series [1] is given as “prevents cardiac hypertrophy”. In series [2], the “effect on hypertrophy induced by infusion of isoproterenol” value is “attenuates hypertrophy”.
